In PubChem BioAssay AID248 (DTP/NCI, 2004) one finds T/C data, which are given here for 19 molecules.

Several values for one entry are separate records, joined by “and”; a condition that tells them apart may be missing. Identical values can stand only once. Inconclusive results and toxic doses are left out.

The subject of this test is L1210 leukemia ip in BDF1 mice, survival T/C. Kind of test: NCI In Vivo Anticancer Drug Screen. Data for tumor model L1210 Leukemia (intraperitoneal) in B6D2F1 (BDF1) mice. As to conditions: endpoint: mean survival time, higher = longer survival. The gist of the method:
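Tumor cells were implanted, animals were treated, and survival was followed. The result divides the treated measurement by the vehicle-control measurement.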

Setting [1] is: dose: 50.0 mg/kg/injection, schedule: Q01DX001 (ip), vehicle: carboxymethylcellulose (CMC).
Setting [2] is: dose: 100.0 mg/kg/injection, schedule: Q01DX001 (ip), vehicle: carboxymethylcellulose (CMC).
Setting [3] is: dose: 200.0 mg/kg/injection, schedule: Q01DX001 (ip), vehicle: carboxymethylcellulose (CMC).
The mark [4] stands for this setting: dose: 400.0 mg/kg/injection, schedule: Q01DX001 (ip), vehicle: carboxymethylcellulose (CMC).
The mark [5] stands for this setting: dose: 100.0 mg/kg/injection, schedule: Q01DX009 (ip), vehicle: saline with Tween-80.
Where [6] appears, read: dose: 100.0 mg/kg/injection, schedule: Q04DX003 (ip), vehicle: saline with Tween-80.
Setting [7] is: dose: 200.0 mg/kg/injection, schedule: Q01DX009 (ip), vehicle: saline with Tween-80.
The mark [8] stands for this setting: dose: 200.0 mg/kg/injection, schedule: Q04DX003 (ip), vehicle: saline with Tween-80.
[9] abbreviates: dose: 400.0 mg/kg/injection, schedule: Q01DX009 (ip), vehicle: saline with Tween-80.
Where [10] appears, read: dose: 400.0 mg/kg/injection, schedule: Q04DX003 (ip), vehicle: saline with Tween-80.

Take `Cc1cc2c(-c3ccccc3)nc3ccccc3n2c1Cl`: the T/C was 92 % of control (dose: 50.0 mg/kg/injection, schedule: Q01DX009 (ip), vehicle: Klucel (hydroxypropylcellulose) (HPC)); 95 % of control (dose: 100.0 mg/kg/injection, schedule: Q01DX009 (ip), vehicle: Klucel (hydroxypropylcellulose) (HPC)); 103 % of control (dose: 200.0 mg/kg/injection, schedule: Q01DX009 (ip), vehicle: Klucel (hydroxypropylcellulose) (HPC)).
Take `CC1=CC(C)(C)NC(=S)N1c1ccc(C)cc1`: the T/C was 104 % of control (dose: 100.0 mg/kg/injection, schedule: Q04DX003 (ip), vehicle: Klucel (hydroxypropylcellulose) (HPC)); 93 % of control (dose: 200.0 mg/kg/injection, schedule: Q04DX003 (ip), vehicle: Klucel (hydroxypropylcellulose) (HPC)); 91 % of control (dose: 400.0 mg/kg/injection, schedule: Q04DX003 (ip), vehicle: Klucel (hydroxypropylcellulose) (HPC)).
Regarding `O=C(Nc1ccccc1)Nc1cccc(C(F)(F)F)c1`, the T/C runs as follows: under setting [1], 104 % of control; under setting [2], 102 % of control; under setting [3], 107 % of control; under setting [4], 109 % of control.
With `O=C(O)/C=C\c1cn(C2OC(CO)C(O)C(O)C2O)c2ccccc12` (centres undefined), the T/C was 105 % of control (dose: 60.0 mg/kg/injection, schedule: Q01DX001 (ip), vehicle: sodium bicarbonate) and 97 % of control (dose: 120.0 mg/kg/injection, schedule: Q01DX001 (ip), vehicle: sodium bicarbonate).
`O=C1c2ccccc2C(=O)N1O`: the T/C is, setting by setting: under setting [1], 95 % of control; under setting [2], 90 % of control; under setting [3], 95 % of control.
As for `CCCCCCCCCCCCc1c(C(OC)OC)[nH]c(=S)[nH]c1=O`, the T/C reads like this: under setting [5], 94 % of control; under setting [6], 98 % of control; under setting [7], 100 % of control; under setting [8], 96 % of control; under setting [9], 103 % of control; under setting [10], 93 % of control.
With `c1ccc(-c2csc3n4ccccc4c[n+]23)cc1`, the T/C was 97 % of control (dose: 6.25 mg/kg/injection, schedule: Q04DX002 (ip), vehicle: saline with Tween-80); 100 % of control (dose: 12.5 mg/kg/injection, schedule: Q04DX002 (ip), vehicle: saline with Tween-80); 93 % of control (dose: 25.0 mg/kg/injection, schedule: Q04DX002 (ip), vehicle: saline with Tween-80).
For `Cc1cc(C)nc(/N=N/c2nc(C)cc(C)n2)n1`, the T/C is 95 % of control (dose: 55.0 mg/kg/injection, schedule: Q01DX Z (ip), vehicle: saline); 91 % of control (dose: 83.0 mg/kg/injection, schedule: Q01DX Z (ip), vehicle: saline); 103 % of control (dose: 125.0 mg/kg/injection, schedule: Q01DX Z (ip), vehicle: saline).
For `CONC(=O)NC(=O)C1(c2ccccc2)CCCCC1`, the T/C reads like this: (dose: 25.0 mg/kg/injection, schedule: Q01DX Z (ip), vehicle: carboxymethylcellulose (CMC)) 96 % of control; (dose: 50.0 mg/kg/injection, schedule: Q01DX Z (ip), vehicle: carboxymethylcellulose (CMC)) 95 % of control; (dose: 100.0 mg/kg/injection, schedule: Q01DX001 (ip), vehicle: saline) 86 % of control; (dose: 100.0 mg/kg/injection, schedule: Q01DX Z (ip), vehicle: carboxymethylcellulose (CMC)) 95 % of control; (dose: 200.0 mg/kg/injection, schedule: Q01DX001 (ip), vehicle: saline) 100 % of control; (dose: 200.0 mg/kg/injection, schedule: Q01DX Z (ip), vehicle: carboxymethylcellulose (CMC)) 102 % of control. Also, the T/C (dose: 200.0 mg/kg/injection, schedule: Q01DX Z (ip), vehicle: methylcellulose (MC)) was 119 % of control; the T/C (dose: 400.0 mg/kg/injection, schedule: Q01DX001 (ip), vehicle: saline) was 102 % of control; the T/C (dose: 400.0 mg/kg/injection, schedule: Q01DX Z (ip), vehicle: carboxymethylcellulose (CMC)) is 96 % of control; the T/C (dose: 400.0 mg/kg/injection, schedule: Q01DX Z (ip), vehicle: methylcellulose (MC)) is 112 % of control.
`O=C1NC(=O)C([N+](=O)[O-])=C(O)C1=O`: the T/C was 96 % of control (dose: 100.0 mg/kg/injection, schedule: Q04DX003 (ip), vehicle: saline) and 101 % of control (dose: 200.0 mg/kg/injection, schedule: Q04DX003 (ip), vehicle: saline).
`Nc1nc(N)c(N=Nc2ccc(S(=O)(=O)Nc3nccs3)cc2)cc1N=Nc1ccccc1`: the T/C under setting [2] is 94 % of control, the T/C under setting [3] was 92 % of control and the T/C under setting [4] is 105 % of control.
For `CCN(CC)CCOc1ccc(C(=O)/C(=C/c2ccc3c(c2)OCO3)c2ccccc2)cc1`, the T/C by setting is: (dose: 100.0 mg/kg/injection, schedule: Q04DX003 (sc), vehicle: olive oil, sesame oil, peanut oil) 103 % of control; (dose: 200.0 mg/kg/injection, schedule: Q04DX003 (sc), vehicle: olive oil, sesame oil, peanut oil) 97 % of control; (dose: 400.0 mg/kg/injection, schedule: Q04DX003 (sc), vehicle: olive oil, sesame oil, peanut oil) 100 % of control.
Consider `S=P(c1ccccc1)(c1ccccc1)N1CCCCC1`, for which the T/C (dose: 100.0 mg/kg/injection, schedule: Q04DX002 (ip), vehicle: saline with Tween-80) is 96 % of control; the T/C (dose: 200.0 mg/kg/injection, schedule: Q04DX002 (ip), vehicle: saline with Tween-80) is 93 % of control; the T/C (dose: 400.0 mg/kg/injection, schedule: Q04DX002 (ip), vehicle: saline with Tween-80) is 93 % of control.
For `O=NN(CCCl)C(=O)Nc1c[nH]c2ccccc12`, the T/C runs as follows: (dose: 118.0 mg/kg/injection, schedule: Q01DX009 (ip), vehicle: carboxymethylcellulose (CMC)) 116 % of control; (dose: 177.0 mg/kg/injection, schedule: Q01DX009 (ip), vehicle: carboxymethylcellulose (CMC)) 116 % of control; (dose: 266.0 mg/kg/injection, schedule: Q01DX009 (ip), vehicle: carboxymethylcellulose (CMC)) 123 % of control; (dose: 400.0 mg/kg/injection, schedule: Q01DX009 (ip), vehicle: carboxymethylcellulose (CMC)) 124 % of control; (dose: 600.0 mg/kg/injection, schedule: Q01DX009 (ip), vehicle: carboxymethylcellulose (CMC)) 156 % of control.
In the case of `CCOc1ccccc1NC(=O)c1cccc(F)c1`, the T/C runs as follows: under setting [5], 101 % of control; under setting [7], 104 % of control; under setting [9], 101 % of control.
`O=C(NC1CCCCC1c1ccccc1)c1ccccc1` (centres undefined): the T/C is 97 % of control and 95 % of control (dose: 75.0 mg/kg/injection, schedule: Q01DX001 (ip), vehicle: carboxymethylcellulose (CMC)); 97 % of control and 91 % of control (dose: 150.0 mg/kg/injection, schedule: Q01DX001 (ip), vehicle: carboxymethylcellulose (CMC)); 94 % of control and 89 % of control (dose: 300.0 mg/kg/injection, schedule: Q01DX001 (ip), vehicle: carboxymethylcellulose (CMC)).
For `Cc1ccc2c(c1)NP(=S)(c1ccccc1)N2` (centres undefined), the T/C is 103 % of control under setting [6], 103 % of control under setting [8] and 100 % of control under setting [10].
Turning to `CCOC(=O)Cn1c(=O)c2ccccc2c2cc(Br)ccc21`, the T/C was 89 % of control (dose: 100.0 mg/kg/injection, schedule: Q01DX001 (ip), vehicle: Klucel (hydroxypropylcellulose) (HPC)); 100 % of control (dose: 200.0 mg/kg/injection, schedule: Q01DX001 (ip), vehicle: Klucel (hydroxypropylcellulose) (HPC)); 92 % of control (dose: 400.0 mg/kg/injection, schedule: Q01DX001 (ip), vehicle: Klucel (hydroxypropylcellulose) (HPC)).
In the case of `Cc1nnc(NS(=O)(=O)c2ccc(N=Nc3c(N)nc(N)[nH]c3=O)cc2)s1`, the T/C was 105 % of control (dose: 5.0 mg/kg/injection, schedule: Q01DX001 (ip), vehicle: saline); 102 % of control (dose: 10.0 mg/kg/injection, schedule: Q01DX001 (ip), vehicle: saline); 98 % of control (dose: 20.0 mg/kg/injection, schedule: Q01DX001 (ip), vehicle: saline); 102 % of control (dose: 40.0 mg/kg/injection, schedule: Q01DX001 (ip), vehicle: saline).
